In EP4603105A1, “PHARMACEUTICAL COMPOSITION CONTAINING CYCLIC COMPOUND HAVING SELECTIVE KRAS INHIBITORY EFFECT AGAINST HRAS AND NRAS” (CHUGAI SEIYAKU KABUSHIKI KAISHA, priority 2022, dated 2024):
Where a SMILES comes first, the peptide text is derived from it. Bridges are numbered along the chain shown (N, C = ends). [ ]: non-standard residue; d: D form. The star is where a group is joined. hPhe(3,5-F2-4-CF3) = N[C@@H](CCc1cc(F)c(C(F)(F)F)c(F)c1)C(=O)O; NPrPhe(4-CF3) = CCCN[C@@H](Cc1ccc(C(F)(F)F)cc1)C(=O)O; NMeGly(cPent) = CN[C@H](C(=O)O)C1CCCC1; NMeD = CN[C@@H](CC(=O)O)C(=O)O; NMeL = CN[C@@H](CC(C)C)C(=O)O; αMeV = CC(C)[C@](C)(N)C(=O)O; Morpholide = C1CN(*)CCO1; Aze = O=C(O)[C@@H]1CCN1; Sar = CNCC(=O)O

Experiments:
[1] = target: GDP-bound KRAS wild-type protein (Homo sapiens, UniProt P01116); test: Binding to KRAS by surface plasmon resonance (SPR), dissociation constant KD
Method in brief: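 Affinity is measured by surface plasmon resonance at 30°C against captured, GDP-loaded RAS carrying a biotinylated Avi tag. Compounds are titrated by single-cycle kinetics, and KD comes from a 1:1 fit.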

[2] = target: GDP-bound NRAS wild-type protein (Homo sapiens, UniProt P01111); test: Binding to NRAS by surface plasmon resonance (SPR), KD and KD ratio to KRAS
Method in brief: (§1)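 Each cycle, GDP-bound biotin-Avi RAS was captured (~100–300 RU), compound concentrations were injected low to high for 75 s each at 100 µL/min, then the chip was regenerated. Buffer: HBS pH 7.4, 10 mM MgCl2, 10 µM GDP, 1 mM DTT, 4% DMSO; 30°C. KD from a 1:1 binding model.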

[3] = tested on: human lung cancer strain NCI-H441; assay type: cell-based
Method in brief: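 Signal came from […] measured per well once the reagent was added. Beforehand, cells were cultured at 37°C and 5% carbon dioxide on a compound series serially diluted in dimethyl sulfoxide.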

HRAS wild-type protein = HRAS wild-type protein (Homo sapiens, UniProt P01112); test: Binding to HRAS by surface plasmon resonance (SPR), KD and KD ratio to KRAS
Method in brief: as §1

[4] = Single Cycle Kinetics, 1:1 binding model
[5] = ratio of the KD value with respect to GDP-bound NRAS wild-type protein to the KD value with respect to KRAS
[6] = ratio of the KD value with respect to HRAS wild-type protein to the KD value with respect to KRAS
[7] = ratio of KD for GDP-bound NRAS wild-type protein to KD for KRAS
[8] = ratio of KD for HRAS wild-type protein to KD for KRAS

Chain of HRAS wild-type protein (P01112 whole entry): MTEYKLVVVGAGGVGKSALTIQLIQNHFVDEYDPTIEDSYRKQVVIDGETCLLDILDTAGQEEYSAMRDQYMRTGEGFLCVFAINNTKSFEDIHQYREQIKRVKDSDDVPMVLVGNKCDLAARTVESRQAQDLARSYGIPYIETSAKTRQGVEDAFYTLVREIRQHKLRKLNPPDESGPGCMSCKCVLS
Chain of GDP-bound KRAS wild-type protein (P01116 1-188 isoform P01116-2): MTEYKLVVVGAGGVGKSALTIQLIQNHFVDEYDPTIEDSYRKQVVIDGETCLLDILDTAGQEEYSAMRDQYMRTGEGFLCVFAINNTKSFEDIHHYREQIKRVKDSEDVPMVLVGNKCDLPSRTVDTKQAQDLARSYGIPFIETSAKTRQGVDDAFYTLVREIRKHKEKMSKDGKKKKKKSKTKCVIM
Chain of GDP-bound NRAS wild-type protein (P01111 whole entry): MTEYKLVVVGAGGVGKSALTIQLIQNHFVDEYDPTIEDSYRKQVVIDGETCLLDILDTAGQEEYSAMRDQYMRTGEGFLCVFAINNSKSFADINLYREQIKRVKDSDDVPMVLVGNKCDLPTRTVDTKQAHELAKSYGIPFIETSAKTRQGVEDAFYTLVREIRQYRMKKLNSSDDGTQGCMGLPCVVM

| Kd [1, 4] [nM] | IC50 [3] [nM] | Kd ([1]; 1:1 binding model) [nM] | Kd ([1]; Single Cycle Kinetics) [nM] | SMILES | NRAS /KRAS [2, 5] | HRAS /KRAS (HRAS wild-type protein; [6]) | NRAS /KRAS [2, 7] | HRAS /KRAS (HRAS wild-type protein; [8]) | NRAS /KRAS ([2]; ratio of KD value for GDP-bound NRAS wild-type protein to KD value for KRAS (SPR)) | HRAS /KRAS (HRAS wild-type protein; ratio of KD value for HRAS wild-type protein to KD value for KRAS (SPR)) |
| --- | --- | --- | --- | --- | --- | --- | --- | --- | --- | --- |
| 0.14 | 9.1 | – | – | C#CCN1CC(=O)N(C)[C@H]2C/C=C\CCN(C2=O)[C@@H](Cc2ccc(C)cc2)C(=O)N(C)CC(=O)N[C@@H](CCc2ccc(C(F)(F)F)c(OC)c2)C(=O)N2C[C@H](OCC)C[C@H]2C(=O)NC2(CC(C)(C)C2)C(=O)N(C)[C@@H](C2CCCC2)C(=O)N(C)[C@H](C(=O)N(C)C)CC(=O)N(C)[C@@H](CCC)C(=O)N[C@@H]([C@@H](C)CC)C1=O [PP2099] | A (a compound having 10 or more and less than 20 is denoted as A) | A (a compound having 10 or more and less than 20 is denoted as A) | – | – | – | – |
| 1.8 | 165 | – | – | CCO[C@@H]1C[C@H]2C(=O)NC3(CCC3)C(=O)N(C)[C@@H](C3CCCC3)C(=O)N(C)[C@H](C(=O)N(CC)CC)CC(=O)N(C)[C@@H](CC(C)C)C(=O)N[C@@H]([C@@H](C)CC)C(=O)N(C)CC(=O)N(C)[C@H]3C/C=C\CCN(C3=O)[C@@H](Cc3ccc(C)cc3)C(=O)N(C)CC(=O)N[C@@H](CCc3ccc(C(F)(F)F)c(OC)c3)C(=O)N2C1 [PP1851] | – | – | – | – | A (a compound having 10 or more and less than 20 is denoted as A) | A (a compound having 10 or more and less than 20 is denoted as A) |
| – | 11.5 | 0.58 | – | CCC[C@H]1C(=O)N[C@@H]([C@@H](C)CC)C(=O)N(C2CC2)CC(=O)N(C)[C@H]2C/C=C\CCN(C2=O)[C@@H](Cc2ccc(C)cc2)C(=O)N(C)CC(=O)N[C@@H](CCc2ccc(C(F)(F)F)c(CC)c2)C(=O)N2C[C@H](OCC)C[C@H]2C(=O)NC2(CC(C)(C)C2)C(=O)N(C)[C@@H](C2CCCC2)C(=O)N(C)[C@H](C(=O)N(C)C)CC(=O)N1C [PP2870] | – | – | A (a compound having 10 or more and less than 20 is denoted as A) | A (a compound having 10 or more and less than 20 is denoted as A) | – | – |
| – | 63.8 | 2 | – | CCO[C@@H]1C[C@H]2C(=O)NC3(CC(C)(C)C3)C(=O)N(C)[C@@H](C3CCCC3)C(=O)N(C)[C@H](C(=O)N(C)CC)CC(=O)N(C)[C@@H](CC(C)C)C(=O)N[C@@H]([C@@H](C)CC)C(=O)N(C)CC(=O)N(C)[C@H]3C/C=C\CCN(C3=O)[C@@H](Cc3ccc(C(F)F)cc3)C(=O)N(C)CC(=O)N[C@@H](CCc3ccc(C4CC4)c(C)c3)C(=O)N2C1 [PP3156] | – | – | A (a compound having 10 or more and less than 20 is denoted as A) | A (a compound having 10 or more and less than 20 is denoted as A) | – | – |
| – | 72.7 | 4.3 | – | CCO[C@@H]1C[C@H]2C(=O)NC3(CC(C)(C)C3)C(=O)N(C)[C@@H](C3CCCC3)C(=O)N(C)[C@H](C(=O)N(C)CC)CC(=O)N(C)[C@@H](CC(C)C)C(=O)N[C@@H]([C@@H](C)CC)C(=O)N(C)CC(=O)N(C)[C@H]3C/C=C\CCN(C3=O)[C@@H](Cc3ccc(C(F)F)cc3)C(=O)N(C)CC(=O)N[C@@H](CCc3cc(C)c(C(F)F)c(C)c3)C(=O)N2C1 [PP3144] | – | – | A (a compound having 10 or more and less than 20 is denoted as A) | A (a compound having 10 or more and less than 20 is denoted as A) | – | – |
| 0.2 | 12.5 | – | – | CC[C@H](C)[C@@H]1NC(=O)[C@H](CC2CC2)N(C)C(=O)C[C@@H](C(=O)N(C)CC)N(C)C(=O)[C@H](C2CCCC2)N(C)C(=O)C2(CC(C)(C)C2)NC(=O)[C@@H]2C[C@@H](C)CN2C(=O)[C@H](CCc2ccc(C(F)(F)F)c(OC)c2)NC(=O)CN(C)C(=O)[C@H](Cc2ccc(C)cc2)N2CC/C=C\C[C@@H](C2=O)N(C)C(=O)CN(C)C1=O [PP1902] | A (a compound having 10 or more and less than 20 is denoted as A) | A (a compound having 10 or more and less than 20 is denoted as A) | – | – | – | – |

More lines, now with the values behind:

| SMILES | Kd [1, 4] [nM] | IC50 [3] [nM] | Kd ([1]; 1:1 binding model) [nM] | Kd ([1]; Single Cycle Kinetics) [nM] | NRAS /KRAS [2, 5] | HRAS /KRAS (HRAS wild-type protein; [6]) | NRAS /KRAS [2, 7] | HRAS /KRAS (HRAS wild-type protein; [8]) | NRAS /KRAS ([2]; ratio of KD value for GDP-bound NRAS wild-type protein to KD value for KRAS (SPR)) | HRAS /KRAS (HRAS wild-type protein; ratio of KD value for HRAS wild-type protein to KD value for KRAS (SPR)) |
| --- | --- | --- | --- | --- | --- | --- | --- | --- | --- | --- |
| C#CC[C@H]1C(=O)N[C@@H]([C@@H](C)CC)C(=O)N(C)CC(=O)N(C)[C@H]2C/C=C\CCN(C2=O)[C@@H](Cc2ccc(C)cc2)C(=O)N(C)CC(=O)N[C@@H](CCc2cc(F)c(C(F)(F)F)c(F)c2)C(=O)N2CC3(CC3)C[C@H]2C(=O)NC2(CC(C)(C)C2)C(=O)N(C)[C@@H](C2CCCC2)C(=O)N(C)[C@H](C(=O)N(C)C)CC(=O)N1C [PP2978] | – | 5.9 | 0.11 | – | – | – | A (a compound having 10 or more and less than 20 is denoted as A) | A (a compound having 10 or more and less than 20 is denoted as A) | – | – |
| CCO[C@@H]1CCN2C(=O)[C@H](CCc3cc(F)c(C(F)(F)F)c(F)c3)NC(=O)CN(C)C(=O)[C@H](Cc3ccc(C(F)(F)F)cc3)N3CCCCC[C@@H](C3=O)N(C)C(=O)CN(C)C(=O)[C@H]([C@@H](C)CC)NC(=O)[C@H](CC(C)C)N(C)C(=O)C[C@@H](C(=O)N3CCOCC3)N(C)C(=O)[C@H](C3CCCC3)N(C)C(=O)C3(CCC3)NC(=O)[C@H]12 [PP1082] | – | 300 | – | 3.5 | – | – | A (a compound having 10 or more and less than 20 is denoted as A) | B (a compound having 3 or more and less than 10 is denoted as B) | – | – |
| CCO[C@@H]1C[C@H]2C(=O)NC3(CC(C)(C)C3)C(=O)N(C)[C@@H](C3CCCC3)C(=O)N(C)[C@H](C(=O)N(C)C)CC(=O)N(C)[C@@H]([C@@H](C)OC)C(=O)N[C@@H]([C@@H](C)CC)C(=O)N3CCC[C@H]3C(=O)N(C)[C@H]3C/C=C\CCN(C3=O)[C@@H](Cc3ccc(C(F)(F)F)cc3)C(=O)N(C)CC(=O)N[C@@H](CCc3ccc(C(F)(F)F)c(OC)c3)C(=O)N2C1 [PP3204] | – | 29.2 | 0.4 | – | – | – | A (a compound having 10 or more and less than 20 is denoted as A) | A (a compound having 10 or more and less than 20 is denoted as A) | – | – |
| CC[C@H](C)[C@@H]1NC(=O)[C@H](CC(C)C)N(C)C(=O)C[C@@H](C(=O)N2C3CCC2COC3)N(C)C(=O)[C@H](C2CCCC2)N(C)C(=O)C2(CCCC2)NC(=O)[C@@H]2CCCN2C(=O)[C@H](CCc2cc(F)c(C(F)(F)F)c(F)c2)NC(=O)CN(C)C(=O)[C@H](Cc2ccc(C(F)(F)F)cc2)N2CCCC[C@@H](C2=O)N(C)C(=O)CN(C)C1=O [PP0573] | 0.34 | 8.7 | – | – | B (a compound having 3 or more and less than 10 is denoted as B) | B (a compound having 3 or more and less than 10 is denoted as B) | – | – | – | – |
| CCCN1C(=O)CN(C)C(=O)[C@@H]2CCN2C(=O)[C@H]([C@@H](C)CC)NC(=O)[C@H](CC(C)C)N(C)C(=O)C[C@@H](C(=O)N2CCOCC2)N(C)C(=O)[C@H](C2CCCC2)N(C)C(=O)[C@](C)(C(C)C)NC(=O)[C@@H]2CCCN2C(=O)[C@H](CCc2cc(F)c(C(F)(F)F)c(F)c2)NC(=O)CN(C)C(=O)[C@@H]1Cc1ccc(C(F)(F)F)cc1 [PP0773] ([NMeL]I[Aze][Sar][NPrPhe(4-CF3)][Sar][hPhe(3,5-F2-4-CF3)]P[αMeV][NMeGly(cPent)][NMeD]-Morpholide; lactam N-11) | – | 170 | – | 4 | – | – | B (a compound having 3 or more and less than 10 is denoted as B) | B (a compound having 3 or more and less than 10 is denoted as B) | – | – |
| CCO[C@@H]1C[C@H]2C(=O)NC3(CCC3)C(=O)N(C)[C@@H](C3CCCC3)C(=O)N(C)[C@H](C(=O)N(C)C)CC(=O)N(C)[C@@H](CC)C(=O)N[C@@H]([C@@H](C)CC)C(=O)N(C)CC(=O)N(C)[C@H]3CCCCCN(C3=O)[C@@H](Cc3nccs3)C(=O)N(C)CC(=O)N[C@@H](CCc3cc(F)c(C(F)(F)F)c(F)c3)C(=O)N2C1 [PP0913] | – | 206 | – | 1.1 | – | – | B (a compound having 3 or more and less than 10 is denoted as B) | B (a compound having 3 or more and less than 10 is denoted as B) | – | – |
